Consider 11 compounds from publication PMC7072484 (Biomolecules, 2020).

The target in data set [1] is T1, CYP3A4 (Homo sapiens, UniProt P08684).
T1 construct: native enzyme in pooled human liver microsomes (200 donors, male and female; Sekisui XenoTech), isoform-selective P450-Glo CYP3A4 kit
Briefly: P450-Glo luminescence inhibition assay. The class given is biochemical.

Data set [2] has as its target T2, CYP2B6 (Homo sapiens, UniProt P20813).
T2 construct: native enzyme in pooled human liver microsomes (200 donors, male and female; Sekisui XenoTech), isoform-selective P450-Glo CYP2B6 kit
T2 sequence (P20813 1-491): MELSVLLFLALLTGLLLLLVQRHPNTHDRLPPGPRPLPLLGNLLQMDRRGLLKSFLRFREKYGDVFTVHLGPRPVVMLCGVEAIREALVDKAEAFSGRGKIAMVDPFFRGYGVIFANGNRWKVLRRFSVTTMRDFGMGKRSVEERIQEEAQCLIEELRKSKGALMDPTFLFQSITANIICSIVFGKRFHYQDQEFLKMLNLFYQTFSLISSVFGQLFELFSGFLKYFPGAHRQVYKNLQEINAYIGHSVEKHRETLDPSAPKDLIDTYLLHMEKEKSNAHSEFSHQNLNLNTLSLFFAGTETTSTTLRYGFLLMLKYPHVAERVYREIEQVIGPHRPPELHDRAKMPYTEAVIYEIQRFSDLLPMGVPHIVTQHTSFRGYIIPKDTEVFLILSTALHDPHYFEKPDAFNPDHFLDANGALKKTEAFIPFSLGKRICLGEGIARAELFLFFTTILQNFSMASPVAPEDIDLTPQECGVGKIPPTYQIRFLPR
The data set is described as follows: P450-Glo luminescence inhibition assay. It is filed as biochemical.

Molecules are shown by their SMILES. Read-outs that look alike come from different tables or passages of the source. Bounds are passed on as bounds.

T1 sequence (P08684 2-503): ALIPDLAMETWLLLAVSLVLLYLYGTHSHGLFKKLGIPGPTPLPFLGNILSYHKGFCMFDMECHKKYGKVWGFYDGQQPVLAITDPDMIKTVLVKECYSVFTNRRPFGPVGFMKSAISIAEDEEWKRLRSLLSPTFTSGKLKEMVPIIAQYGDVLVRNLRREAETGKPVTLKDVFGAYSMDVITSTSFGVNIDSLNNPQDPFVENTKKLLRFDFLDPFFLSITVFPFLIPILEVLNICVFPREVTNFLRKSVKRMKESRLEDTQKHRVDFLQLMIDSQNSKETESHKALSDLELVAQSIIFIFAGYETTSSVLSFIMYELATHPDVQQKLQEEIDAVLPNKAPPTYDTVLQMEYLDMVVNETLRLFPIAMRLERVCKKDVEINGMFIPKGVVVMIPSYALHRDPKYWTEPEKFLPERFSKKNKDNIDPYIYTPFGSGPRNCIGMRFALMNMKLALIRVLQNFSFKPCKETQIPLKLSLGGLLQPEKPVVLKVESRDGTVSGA

With `O=C(/C=C/c1ccc(O)c(O)c1)O[C@@H]1C[C@](O)(C(=O)O)C[C@@H](O)[C@H]1O` [Chlorogenic Acid], the IC50 in data set [1] (read-out: CYP2B6 IC50) and in data set [2] was above 600 µM each time. For `C[C@@H]1CC[C@H]2[C@@H](C)C(=O)O[C@@H]3O[C@@]4(C)CC[C@@H]1[C@]32O4` [Deoxyartemisinin], the IC50 in data set [1] (read-out: CYP3A4 IC50) is above 600 µM; in data set [2], 111 µM. In the case of `CC1(C)[C@H]2CC[C@]1(C)C(=O)C2` [Camphor (-)], the results for the IC50 in data set [1] (read-out: CYP3A4 IC50) and in data set [2] were above 600 µM and 142 µM, respectively. As to `COc1cc(-c2oc3cc(OC)c(OC)c(O)c3c(=O)c2OC)ccc1O` [Chrysosplenetin], the 50% inhibitory concentration (IC50) worked out at 21.7 µM in data set [1] (read-out: CYP3A4 IC50) and 74.7 µM in data set [2]. In the same order, the values of `COc1cc2oc(-c3ccc(O)c(O)c3)c(OC)c(=O)c2c(O)c1OC` [Chrysosplenol-D] are 23 µM and 52.1 µM. `O=c1c(O)c(-c2ccc(O)c(O)c2)oc2cc(O)cc(O)c12` [Quercetin]: the IC50 in data set [1] (read-out: CYP3A4 IC50) came out at 4.59 µM; in data set [2], 19.9 µM. As for `C=C1C(=O)O[C@@]23[C@H]1CC[C@@H](C)[C@@H]2CC[C@@]1(C)O[C@@H]31` [Arteannuin B], the figures for the IC50 in data set [1] (read-out: CYP3A4 IC50) and in data set [2] were 12.3 µM and 9.36 µM, respectively. As to `CC1(C)[C@@H]2CC[C@@]1(C)C(=O)C2` [Camphor (+)], the IC50 was above 600 µM in data set [1] (read-out: CYP3A4 IC50) and 119 µM in data set [2]. In the case of `O=c1c(O)c(-c2ccc(O)cc2)oc2cc(O)cc(O)c12` [Kaempferol], the IC50 is 33.8 µM in data set [1] (read-out: CYP3A4 IC50) and above 600 µM in data set [2]. Turning to `COc1cc2ccc(=O)oc2cc1O` [Scopoletin], the IC50 in data set [2] was above 600 µM.

On to `C=C(C(=O)O)[C@@H]1CC[C@@H](C)[C@@H]2CCC(C)=C[C@@H]21` [Artemisinic Acid], for which the half-maximal inhibitory concentration (IC50) in data set [1] (read-out: CYP3A4 IC50) was 240 µM; in data set [2], 123 µM.

Usually IC50 stands for the concentration that gives 50% inhibition.
